Experimental data as given in patent publication US20160310369A1, “Low Viscosity Hair Care Composition” (The Procter & Gamble Company, priority 2015, published 2016).
Where a name gives a salt, the structure may show the parent alone.

test: Kinematic viscosity of surfactant base formulation with added agent, calibrated Cannon viscometers at 40° C.; format: physicochemical; details: 2% agent in base formulation
From the text: Referring to Tables 1 and 2, the base formulations were made by mixing 1.6% perfume, 24% sodium undecyl sulfate (CAS#1072-24-8) active, 6% lauramidopropyl betaine (CAS#4292-10-8) active and 60.4% deionized water which leaves 8% unfilled for the addition of a viscosity reducing agent (the balance being filled in by distilled water). For all compositions, the surfactant, water and additives including viscosity reducing agents were expected to be in a single phase.
The agents from Tables 1 and 2 were added to the base formulation at a percentage of 2%, 4%, 6%, and 8% into the above surfactant solution. The subsequent formulations were vortexed and put into oven at 60° C. overnight to form homogeneous solution. The viscosities of the formulations were measured with calibrated viscometers (Size 200/350/450) from Cannon Instrument Company (2139 High Tech Road, State College, Pa., USA, 16803).
(§1) After the equilibration, the formulations were drawn to reach the starting mark with a rubber suction bulb and the flow time between the starting mark and end mark was recorded for calculation. Each formulation was measured three times to calculate average and standard deviation. Between samples, viscometer was cleaned with water and acetone to rinse off residual.
Viscosity values were calculated based on the equation:
Viscosity (mm^2/s·(cSt))=Time (s)*Constant (mm^2/s^2·(cSt/s))
The time in the above equation is the flow time recorded in the experiment and the constant numbers for each calibrated viscometer were obtained from the manuals.
The viscosity of the hair care composition can be calculated using the following method: Combine ingredients including surfactants, perfumes, viscosity reducing agents, polymers, other ingredients and the aqueous medium in a vessel. Samples are vortexed and placed into oven at 60° C. overnight to form a homogeneous solution. Samples that show hazing or clouding and formulas that appear macroscopically heterogeneous (e.g. multiple layers) at room temperature are not considered for further analysis and evaluation.
The viscosities of the formulations are measured with calibrated viscometers (Size 200/350/450) from Cannon Instrument Company (2139 High Tech Road, State College, Pa., USA, 16803). Prior to the measurement, the formulations are equilibrated in the viscometer reservoir for 30 min at 40° C. in water bath to ensure a homogeneous temperature is reached in the system.
as §1, with “are” for “were”, “is” for “was”, “samples, the” for “samples,”

| SMILES | Kinematic viscosity at 40 C. [cSt] 2% oil |
| --- | --- |
| CCC(=O)O[C@@H]1C[C@H]2CC[C@]1(C)C2(C)C (racemic) [Iso Bornyl Propionate] | 463.1 cSt |
| CCCCCCCC(OC)OC [1,1-Dimethoxyoctane] | 500.7 cSt |
| CC(C)CC=C(C=O)C(C)C [2-Isopropyl-5-methyl-2-hexenal] | 332.3 cSt |
| CC(=O)OCCC(C)CCCC(C)C (stereo not drawn) [3,7-Dimethyloctyl Acetate] | 445.7 cSt |
| CCC(CC(C)CC)=NO (stereo not drawn) [5-Methyl-3-Heptanone Oxime] | 246.3 cSt |
| CCCCOC(=O)c1ccccc1O [Butyl Salicylate] | 367.9 cSt |
| CC12CCC(CC1=O)C2(C)C (stereo not drawn) [Camphor Gum] | 365.8 cSt |
| CC(=O)OCCC(C)CCC=C(C)C (stereo not drawn) [Citronellyl Acetate] | 362.7 cSt |
| CCC(=O)OC1CC2CC1C1CC=CC21 (stereo not drawn) [Cyclaprop] | 404.2 cSt |
| CCCCCCC1C(=O)CCC1C(=O)OC (stereo not drawn) [Dihyro Iso Jasmonate] | 334.9 cSt |
| C=C(C)[C@H]1CC=C(C)CC1 [Dipentene] | 307.6 cSt |
| CCO [Ethanol, reference compound] | 205.6 cSt |
| CC12CCC(CC1)C(C)(C)O2 [Eucalyptol] | 527.3 cSt |
| CC(C)=CCC/C(C)=C/COC(=O)Cc1ccccc1 [Geranyl Phenyl Acetate] | 224.0 cSt |
| CCCCCCCCCCCCCCCC [Hexadecane] | 21.1 cSt |
| CC(CC=O)CCCC(C)(C)O (stereo not drawn) [Hydroxycitronellal] | 310.8 cSt |
| CC(C)COC(=O)c1ccccc1O [Iso Butyl Salicylate] | 408.7 cSt |
| CCCCCCCCCCCCCC(=O)OC(C)C [Iso Propyl Myristate] | 234.2 cSt |
| CC(C)CCOC(=O)c1ccccc1O [Isoamyl Salicylate] | 460.3 cSt |
| CCCCCC(=O)OCC(C)C [Isobutyl Hexanoate] | 390.0 cSt |
| C=C(C)[C@H]1CC=C(C)CC1 [Limonene] | 366.5 cSt |
| C=CC(C)(CCC=C(C)C)OC(=O)C(C)C (stereo not drawn) [Linalyl Iso Butyrate] | 223.4 cSt |
| COC(C)(C)C1CC=C(C)CC1 (stereo not drawn) [Orange Flower Ether] | 552.2 cSt |
| CC(=O)CCc1ccc(O)cc1 [Raspberry Ketone] | 151.9 cSt |
| CCOC(=O)CC(O)(CC(=O)OCC)C(=O)OCC [Triethyl Citrate] | 269.4 cSt |
| CCCCCC1(C)CCC(C)(C)C1=O (stereo not drawn) [Veloutone] | 260.2 cSt |
| CC1=CC=C(C(C)C)CC1 [alpha-Terpinene] | 324.4 cSt |
| CC1=CCC(C(C)C)=CC1 [gamma-Terpinene] | 238.0 cSt |

same assay, conditions: 4% agent in base formulation

| SMILES | Kinematic viscosity at 40 C. [cSt] 4% oil |
| --- | --- |
| CCCCCCCC(OC)OC [1,1-Dimethoxyoctane] | 308.1 cSt |
| CC12CCC(CC1=O)C2(C)C (stereo not drawn) [Camphor Gum] | 127.2 cSt |
| CCCCCCC1C(=O)CCC1C(=O)OC (stereo not drawn) [Dihyro Iso Jasmonate] | 119.1 cSt |
| C=C(C)[C@H]1CC=C(C)CC1 [Dipentene] | 74.5 cSt |
| CCO [Ethanol, reference compound] | 111.0 cSt |
| CC12CCC(CC1)C(C)(C)O2 [Eucalyptol] | 292.9 cSt |
| CC(C)=CCC/C(C)=C/COC(=O)Cc1ccccc1 [Geranyl Phenyl Acetate] | 76.0 cSt |
| CCCCCCCCCCCCCCCC [Hexadecane] | 18.1 cSt |
| CC(CC=O)CCCC(C)(C)O (stereo not drawn) [Hydroxycitronellal] | 145.4 cSt |
| CCCCCCCCCCCCCC(=O)OC(C)C [Iso Propyl Myristate] | 53.7 cSt |
| CC(C)CCOC(=O)c1ccccc1O [Isoamyl Salicylate] | 193.2 cSt |
| CCCCCC(=O)OCC(C)C [Isobutyl Hexanoate] | 177.9 cSt |
| C=C(C)[C@H]1CC=C(C)CC1 [Limonene] | 166.8 cSt |
| C=CC(C)(CCC=C(C)C)OC(=O)C(C)C (stereo not drawn) [Linalyl Iso Butyrate] | 73.0 cSt |
| COC(C)(C)C1CC=C(C)CC1 (stereo not drawn) [Orange Flower Ether] | 418.8 cSt |
| CC(=O)CCc1ccc(O)cc1 [Raspberry Ketone] | 107.4 cSt |
| CCOC(=O)CC(O)(CC(=O)OCC)C(=O)OCC [Triethyl Citrate] | 136.6 cSt |
| CCCCCC1(C)CCC(C)(C)C1=O (stereo not drawn) [Veloutone] | 129.1 cSt |
| CC1=CC=C(C(C)C)CC1 [alpha-Terpinene] | 96.0 cSt |
| CC1=CCC(C(C)C)=CC1 [gamma-Terpinene] | 65.0 cSt |

same assay, conditions: 6% agent in base formulation

| SMILES | Kinematic viscosity at 40 C. [cSt] 6% oil |
| --- | --- |
| C=C(C)[C@H]1CC=C(C)CC1 [Dipentene] | 35.1 cSt |
| CCO [Ethanol, reference compound] | 50.8 cSt |
| CC12CCC(CC1)C(C)(C)O2 [Eucalyptol] | 203.1 cSt |
| CC(C)=CCC/C(C)=C/COC(=O)Cc1ccccc1 [Geranyl Phenyl Acetate] | 34.3 cSt |
| CC(CC=O)CCCC(C)(C)O (stereo not drawn) [Hydroxycitronellal] | 65.9 cSt |
| CCCCCCCCCCCCCC(=O)OC(C)C [Iso Propyl Myristate] | 30.4 cSt |
| CCCCCC(=O)OCC(C)C [Isobutyl Hexanoate] | 140.9 cSt |
| C=C(C)[C@H]1CC=C(C)CC1 [Limonene] | 97.5 cSt |
| C=CC(C)(CCC=C(C)C)OC(=O)C(C)C (stereo not drawn) [Linalyl Iso Butyrate] | 37.7 cSt |
| CC(=O)CCc1ccc(O)cc1 [Raspberry Ketone] | 54.0 cSt |
| CCOC(=O)CC(O)(CC(=O)OCC)C(=O)OCC [Triethyl Citrate] | 66.6 cSt |
| CCCCCC1(C)CCC(C)(C)C1=O (stereo not drawn) [Veloutone] | 56.3 cSt |
| CC1=CC=C(C(C)C)CC1 [alpha-Terpinene] | 41.5 cSt |
| CC1=CCC(C(C)C)=CC1 [gamma-Terpinene] | 31.7 cSt |

same assay, conditions: 8% agent in base formulation

| SMILES | Kinematic viscosity at 40 C. [cSt] 8% oil |
| --- | --- |
| C=C(C)[C@H]1CC=C(C)CC1 [Dipentene] | 42.6 cSt |
| CCO [Ethanol, reference compound] | 29.2 cSt |
| CC(C)=CCC/C(C)=C/COC(=O)Cc1ccccc1 [Geranyl Phenyl Acetate] | 36.6 cSt |
| CC(CC=O)CCCC(C)(C)O (stereo not drawn) [Hydroxycitronellal] | 34.1 cSt |
| CCCCCCCCCCCCCC(=O)OC(C)C [Iso Propyl Myristate] | 45.0 cSt |
| CCCCCC(=O)OCC(C)C [Isobutyl Hexanoate] | 109.4 cSt |
| C=C(C)[C@H]1CC=C(C)CC1 [Limonene] | 86.4 cSt |
| C=CC(C)(CCC=C(C)C)OC(=O)C(C)C (stereo not drawn) [Linalyl Iso Butyrate] | 39.9 cSt |
| CC(=O)CCc1ccc(O)cc1 [Raspberry Ketone] | 33.0 cSt |
| CCOC(=O)CC(O)(CC(=O)OCC)C(=O)OCC [Triethyl Citrate] | 40.5 cSt |
| CCCCCC1(C)CCC(C)(C)C1=O (stereo not drawn) [Veloutone] | 47.3 cSt |
| CC1=CC=C(C(C)C)CC1 [alpha-Terpinene] | 46.7 cSt |

same assay, conditions: lowest over 2-8% agent, Table 2

| SMILES | Kinematic viscosity at 40 C. [cSt] Lowest viscosity achieved |
| --- | --- |
| CCC(=O)O[C@@H]1C[C@H]2CC[C@]1(C)C2(C)C (racemic) [Iso Bornyl Propionate] | 463 cSt |
| CCCCCCCC(OC)OC [1,1-Dimethoxyoctane] | 308 cSt |
| CC(C)CC=C(C=O)C(C)C [2-Isopropyl-5-methyl-2-hexenal] | 332 cSt |
| CC(=O)OCCC(C)CCCC(C)C (stereo not drawn) [3,7-Dimethyloctyl Acetate] | 446 cSt |
| CCC(CC(C)CC)=NO (stereo not drawn) [5-Methyl-3-Heptanone Oxime] | 246 cSt |
| CCCCOC(=O)c1ccccc1O [Butyl Salicylate] | 368 cSt |
| CC12CCC(CC1=O)C2(C)C (stereo not drawn) [Camphor Gum] | 127 cSt |
| CC(=O)OCCC(C)CCC=C(C)C (stereo not drawn) [Citronellyl Acetate] | 363 cSt |
| CCC(=O)OC1CC2CC1C1CC=CC21 (stereo not drawn) [Cyclaprop] | 404 cSt |
| CCCCCCC1C(=O)CCC1C(=O)OC (stereo not drawn) [Dihyro Iso Jasmonate] | 119 cSt |
| C=C(C)[C@H]1CC=C(C)CC1 [Dipentene] | 35 cSt |
| CCO [Ethanol, reference compound] | 29 cSt |
| CC12CCC(CC1)C(C)(C)O2 [Eucalyptol] | 203 cSt |
| CC(C)=CCC/C(C)=C/COC(=O)Cc1ccccc1 [Geranyl Phenyl Acetate] | 34 cSt |
| CCCCCCCCCCCCCCCC [Hexadecane] | 18 cSt |
| CC(CC=O)CCCC(C)(C)O (stereo not drawn) [Hydroxycitronellal] | 34 cSt |
| CC(C)COC(=O)c1ccccc1O [Iso Butyl Salicylate] | 409 cSt |
| CCCCCCCCCCCCCC(=O)OC(C)C [Iso Propyl Myristate] | 30 cSt |
| CC(C)CCOC(=O)c1ccccc1O [Isoamyl Salicylate] | 193 cSt |
| CCCCCC(=O)OCC(C)C [Isobutyl Hexanoate] | 109 cSt |
| C=C(C)[C@H]1CC=C(C)CC1 [Limonene] | 86 cSt |
| C=CC(C)(CCC=C(C)C)OC(=O)C(C)C (stereo not drawn) [Linalyl Iso Butyrate] | 38 cSt |
| COC(C)(C)C1CC=C(C)CC1 (stereo not drawn) [Orange Flower Ether] | 419 cSt |
| CC(=O)CCc1ccc(O)cc1 [Raspberry Ketone] | 33 cSt |
| CCOC(=O)CC(O)(CC(=O)OCC)C(=O)OCC [Triethyl Citrate] | 41 cSt |
| CCCCCC1(C)CCC(C)(C)C1=O (stereo not drawn) [Veloutone] | 47 cSt |
| CC1=CC=C(C(C)C)CC1 [alpha-Terpinene] | 42 cSt |
| CC1=CCC(C(C)C)=CC1 [gamma-Terpinene] | 32 cSt |
